From ChEMBL document CHEMBL4811284, “Tellurides bearing benzensulfonamide as carbonic anhydrase inhibitors with potent antitumor activity” (Bioorg Med Chem Lett, 2021)

Key:
Carbonic anhydrase 9 = Carbonic anhydrase 9 (Homo sapiens, UniProt Q16790); experiment: Inhibition of recombinant human CA9 preincubated for 15 mins by measured for 10 to 100 secs by phenol red dye based stopped flow CO2 hydration assay
MDA-MB-231 [1] = experiment: Cytotoxicity against human MDA-MB-231 cells assessed as cell viability at 10 uM measured under normoxic condition after 48 hrs relative to control; type: functional; settings: read-out: Activity
MDA-MB-231 [2] = experiment: Cytotoxicity against human MDA-MB-231 cells assessed as cell viability at 1 uM measured under normoxic condition after 48 hrs relative to control; type: functional; settings: read-out: Activity
MDA-MB-231 [3] = experiment: Cytotoxicity against human MDA-MB-231 cells assessed as cell killing under hypoxia conditions at 1 uM measured after 48 hrs relative to control; type: functional
MDA-MB-231 [4] = experiment: Cytotoxicity against human MDA-MB-231 cells assessed as cell killing under hypoxia conditions at 10 uM measured after 48 hrs relative to control; type: functional
MDA-MB-231 [5] = experiment: Cytotoxicity against human MDA-MB-231 cells assessed as cell killing at 1 uM measured under normoxic condition after 48 hrs relative to control; type: functional
MDA-MB-231 [6] = experiment: Cytotoxicity against human MDA-MB-231 cells assessed as cell viability under hypoxia conditions at 1 uM measured after 48 hrs relative to control; type: functional
MDA-MB-231 [7] = experiment: Cytotoxicity against human MDA-MB-231 cells assessed as cell viability under hypoxia conditions at 10 uM measured after 48 hrs relative to control; type: functional

COc1cc([Te]Cc2ccc(S(N)(=O)=O)cc2)cc(OC)c1OC
Ki (Carbonic anhydrase 9): 2.4 nM | viability at 10 µM (MDA-MB-231 [1]): 3% | viability at 1 µM (MDA-MB-231 [2]): 18% | Activity (MDA-MB-231 [3]): 65% | Activity (MDA-MB-231 [4]): 85%

Cc1ccc([Te]Cc2ccc(S(N)(=O)=O)cc2)cc1
Ki (Carbonic anhydrase 9): 2.2 nM

Cc1cccc(C)c1[Te]Cc1ccc(S(N)(=O)=O)cc1
Ki (Carbonic anhydrase 9): 2.5 nM

NS(=O)(=O)c1ccc(C[Te]c2ccccc2)cc1
Ki (Carbonic anhydrase 9): 2.4 nM | Activity (MDA-MB-231 [5]): 90% | viability at 10 µM (MDA-MB-231 [1]): 5% | Activity (MDA-MB-231 [6]): 16% | Activity (MDA-MB-231 [7]): 13%

COc1ccc([Te]Cc2ccc(S(N)(=O)=O)cc2)cc1
Ki (Carbonic anhydrase 9): 2.6 nM

Cc1ccccc1[Te]Cc1ccc(S(N)(=O)=O)cc1
Ki (Carbonic anhydrase 9): 2.6 nM

NS(=O)(=O)c1ccc(C[Te]c2ccc3ccccc3c2)cc1
Ki (Carbonic anhydrase 9): 2.9 nM
